Reference: patent US8377942B2, “Isoxazolines derivatives and their use as pesticide” (Novartis AG, priority 2008, dated 2013)

System: Rhipicephalus sanguineus nymphs
Test: Activity in vivo against Rhipicephalus sanguineus nymphs on Mongolian gerbils (spray application)
Details: Dose 100 mg/kg, tick number reduction vs placebo (Abbot's formula), 7 days after infestation
Method: 3. Activity In Vivo Against Rhipicephalus sanguineus Nymphs on Mongolian Gerbils (Meriones unguiculatus) (Spray Application) On day 0, gerbils are treated with the test compound at a given dose by spray application. On day +1, the animals are infested with nymphs of R. sangineus. Ticks are left on the animals until full repletion. Seven days after infestation nymphs dropped off fully engorged are collected and counted. Efficacy in killing is expressed as a tick number reduction in comparison with a placebo treated group using the Abbot's formula.

FC(F)(F)C1(c2cc(Cl)cc(Cl)c2)CC(c2ccc(-n3cncn3)c3ccccc23)=NO1 (stereo not drawn) [Compound 1.1, 1-{4-[5-(3,5-dichloro-phenyl)-5-trifluoromethyl-4,5-dihydro-isoxazol-3-yl]-naphthalen-1-yl}-1H-[1,2,4]triazole]
Efficacy (%): 85%

FC(F)(F)C1(c2cc(Cl)cc(Cl)c2)CC(c2ccc(-c3cn(Cc4ccccn4)nn3)c3ccccc23)=NO1 (stereo not drawn) [Compound 1.27, 2-(4-{4-[5-(3,5-dichloro-phenyl)-5-trifluoromethyl-4,5-dihydro-isoxazol-3-yl]-naphthalen-1-yl}-[1,2,3]triazol-1-ylmethyl)-pyridine]
Efficacy (%): 79%

O=C(NCc1cn(-c2ccc(C3=NOC(c4cc(Cl)cc(Cl)c4)(C(F)(F)F)C3)c3ccccc23)nn1)c1ccncc1 (stereo not drawn) [Compound 1.61, N-(1-{4-[5-(3,5-dichloro-phenyl)-5-trifluoromethyl-4,5-dihydro-isoxazol-3-yl]-naphthalen-1-yl}-1H-[1,2,3]triazol-4-ylmethyl)-isonicotinamide]
Efficacy (%): 96%
